Data from patent US6114310A, “Efflux pump inhibitors” (priority 1998, dated 2000).

Tested on: Pseudomonas aeruginosa PAM1001
Assay: microbe, parasite or virus in culture
Assay type: cell-based
Protocol: The activity of efflux pump inhibitors (EPI) in combination with fluoroquinolones, such as levofloxacin, is assessed by the checkerboard assay (Antimicrobial Combinations. In Antibiotics in Laboratory Medicine, Ed. Victor Lorian, M. D., Fourth edition, 1996, pp 333-338) using broth microdilution method performed as recommended by the NCCLS (National Committee for Clinical Laboratory Standards (NCCLS). 1997. Methods for Dilution of Antimicrobial Susceptibility Tests for Bacteria That Grow Aerobically--Fourth Edition; Approved Standard. NCCLS Document M7-A4, Vol 17 No.2). The test organism used is Pseudomonas aeruginosa PAM1001.
In this assay, multiple dilutions of two drugs, namely the EPI and levofloxacin, are being tested, alone and in combination, at concentrations equal to, above and below their respective minimal inhibitory concentrations (MICs).
Stock solutions are further diluted, according to the needs of a particular assay, in Mueller Hinton Broth (MHB). Stock solution can be stored at -80° C. Quinolones are solubilized according to the instructions of the manufacturers, at a concentration of 1 mg/ml. They are then further diluted in MHB. Stock solution can be stored at -80° C.
The checkerboard assay is performed in microtiter plates. Levofloxacin is diluted in the x axis, each column containing a single concentration of levofloxacin. The EPI is diluted in the y axis, each row containing an equal concentration of EPI. The result of these manipulations is that each well of the microtiter plate contains a unique combination of concentrations of the two agents. Each EPI are tested independently.
The assay is performed in MHB with a final bacterial inoculum of 5×10^5 CFU/ml (from an early-log phase culture). Microtiter plates are incubated during 20 h at 35° C. and are read using a microtiterplate reader (Molecular Devices) at 650 nm as well as visual observation using a microtiterplate reading mirror.

[1] = Table 1, EPI Conc. μg/ml (number not given; column between 10 and 40 μg/ml)
[2] = Table 2, EPI Conc. μg/ml (number not given; column between 10 and 40 μg/ml)
[3] = Table 3, EPI Conc. μg/ml (number not given; column between 10 and 40 μg/ml)
[4] = Table 4, EPI Conc. μg/ml (number not given; column between 10 and 40 μg/ml)

Row | Compound | Levofloxacin MIC Against P. aeruginosa PAM1001 in Presence of Efflux Pump Inhibitor (EPI), Minimum Inhibitory Concentration (Table 1, EPI Conc. 0 μg/ml) | Levofloxacin MIC Against P. aeruginosa PAM1001 in Presence of Efflux Pump Inhibitor (EPI), Minimum Inhibitory Concentration (Table 1, EPI Conc. 0.625 μg/ml) | Levofloxacin MIC Against P. aeruginosa PAM1001 in Presence of Efflux Pump Inhibitor (EPI), Minimum Inhibitory Concentration (Table 1, EPI Conc. 5 μg/ml) | Levofloxacin MIC Against P. aeruginosa PAM1001 in Presence of Efflux Pump Inhibitor (EPI), Minimum Inhibitory Concentration (Table 1, EPI Conc. 10 μg/ml) | Levofloxacin MIC Against P. aeruginosa PAM1001 in Presence of Efflux Pump Inhibitor (EPI), Minimum Inhibitory Concentration (Table 1, EPI Conc. 40 μg/ml) | Levofloxacin MIC Against P. aeruginosa PAM1001 in Presence of Efflux Pump Inhibitor (EPI), Minimum Inhibitory Concentration [1] | Levofloxacin MIC Against P. aeruginosa PAM1001 in Presence of Efflux Pump Inhibitor (EPI), Minimum Inhibitory Concentration (Table 2, EPI Conc. 0 μg/ml) | Levofloxacin MIC Against P. aeruginosa PAM1001 in Presence of Efflux Pump Inhibitor (EPI), Minimum Inhibitory Concentration (Table 2, EPI Conc. 0.625 μg/ml) | Levofloxacin MIC Against P. aeruginosa PAM1001 in Presence of Efflux Pump Inhibitor (EPI), Minimum Inhibitory Concentration (Table 2, EPI Conc. 5 μg/ml) | Levofloxacin MIC Against P. aeruginosa PAM1001 in Presence of Efflux Pump Inhibitor (EPI), Minimum Inhibitory Concentration (Table 2, EPI Conc. 40 μg/ml) | Levofloxacin MIC Against P. aeruginosa PAM1001 in Presence of Efflux Pump Inhibitor (EPI), Minimum Inhibitory Concentration (Table 2, EPI Conc. […]) | Levofloxacin MIC Against P. aeruginosa PAM1001 in Presence of Efflux Pump Inhibitor (EPI), Minimum Inhibitory Concentration [2] | Levofloxacin MIC Against P. aeruginosa PAM1001 in Presence of Efflux Pump Inhibitor (EPI), Minimum Inhibitory Concentration (Table 3, EPI Conc. 0 μg/ml) | Levofloxacin MIC Against P. aeruginosa PAM1001 in Presence of Efflux Pump Inhibitor (EPI), Minimum Inhibitory Concentration (Table 3, EPI Conc. 0.625 μg/ml) | Levofloxacin MIC Against P. aeruginosa PAM1001 in Presence of Efflux Pump Inhibitor (EPI), Minimum Inhibitory Concentration (Table 3, EPI Conc. 5 μg/ml) | Levofloxacin MIC Against P. aeruginosa PAM1001 in Presence of Efflux Pump Inhibitor (EPI), Minimum Inhibitory Concentration (Table 3, EPI Conc. 10 μg/ml) | Levofloxacin MIC Against P. aeruginosa PAM1001 in Presence of Efflux Pump Inhibitor (EPI), Minimum Inhibitory Concentration [3] | Levofloxacin MIC Against P. aeruginosa PAM1001 in Presence of Efflux Pump Inhibitor (EPI), Minimum Inhibitory Concentration (Table 4, EPI Conc. 0 μg/ml) | Levofloxacin MIC Against P. aeruginosa PAM1001 in Presence of Efflux Pump Inhibitor (EPI), Minimum Inhibitory Concentration (Table 4, EPI Conc. 0.625 μg/ml) | Levofloxacin MIC Against P. aeruginosa PAM1001 in Presence of Efflux Pump Inhibitor (EPI), Minimum Inhibitory Concentration (Table 4, EPI Conc. 5 μg/ml) | also measured
1 | D-Lysyl-β-N-(4-Methylphenethyl)alanine Quinoline-2-amide TFA [Example 22] | 4 µg/mL | 4 µg/mL | 2 µg/mL | 1 µg/mL | 0.125 µg/mL | 0.125 µg/mL | 4 µg/mL | 4 µg/mL | 1 µg/mL | 0.03 µg/mL | 4 µg/mL | 0.06 µg/mL | 4 µg/mL | 4 µg/mL | 1 µg/mL | 0.125 µg/mL | 0.03 µg/mL | 4 µg/mL | 4 µg/mL | 4 µg/mL | Levofloxacin MIC Against P. aeruginosa PAM1001 in Presence of Efflux Pump Inhibitor (EPI), Minimum Inhibitory Concentration (Table 1, EPI Conc. […]): 4 µg/mL; Levofloxacin MIC Against P. aeruginosa PAM1001 in Presence of Efflux Pump Inhibitor (EPI), Minimum Inhibitory Concentration (Table 2, EPI Conc. 10 μg/ml): 0.25 µg/mL; Levofloxacin MIC Against P. aeruginosa PAM1001 in Presence of Efflux Pump Inhibitor (EPI), Minimum Inhibitory Concentration (Table 3, EPI Conc. 40 μg/ml): 0.06 µg/mL; Levofloxacin MIC Against P. aeruginosa PAM1001 in Presence of Efflux Pump Inhibitor (EPI), Minimum Inhibitory Concentration (Table 4, EPI Conc. 10 μg/ml): 2 µg/mL; Levofloxacin MIC Against P. aeruginosa PAM1001 in Presence of Efflux Pump Inhibitor (EPI), Minimum Inhibitory Concentration (Table 4, EPI Conc. 40 μg/ml): 0.50 µg/mL; Levofloxacin MIC Against P. aeruginosa PAM1001 in Presence of Efflux Pump Inhibitor (EPI), Minimum Inhibitory Concentration (Table 4, EPI Conc. […]): 4 µg/mL; Levofloxacin MIC Against P. aeruginosa PAM1001 in Presence of Efflux Pump Inhibitor (EPI), Minimum Inhibitory Concentration [4]: 1 µg/mL
2 | D-Ornithyl-D-β-(3-quinolinyl)alanine 2,3-trimethylenepyridyl-5-amide [Compound 41 (Table 2)] | 4 µg/mL | 4 µg/mL | 0.125 µg/mL | 0.06 µg/mL | 0.015 µg/mL | 0.015 µg/mL | 4 µg/mL | 4 µg/mL | 2 µg/mL | 0.50 µg/mL | 4 µg/mL | 0.25 µg/mL | 4 µg/mL | 4 µg/mL | 4 µg/mL | 2 µg/mL | 1 µg/mL | 4 µg/mL | 4 µg/mL | 2 µg/mL | Levofloxacin MIC Against P. aeruginosa PAM1001 in Presence of Efflux Pump Inhibitor (EPI), Minimum Inhibitory Concentration (Table 1, EPI Conc. […]): 2 µg/mL; Levofloxacin MIC Against P. aeruginosa PAM1001 in Presence of Efflux Pump Inhibitor (EPI), Minimum Inhibitory Concentration (Table 2, EPI Conc. 10 μg/ml): 1 µg/mL; Levofloxacin MIC Against P. aeruginosa PAM1001 in Presence of Efflux Pump Inhibitor (EPI), Minimum Inhibitory Concentration (Table 3, EPI Conc. 40 μg/ml): 0.50 µg/mL; Levofloxacin MIC Against P. aeruginosa PAM1001 in Presence of Efflux Pump Inhibitor (EPI), Minimum Inhibitory Concentration (Table 3, EPI Conc. […]): 4 µg/mL; Levofloxacin MIC Against P. aeruginosa PAM1001 in Presence of Efflux Pump Inhibitor (EPI), Minimum Inhibitory Concentration (Table 4, EPI Conc. 10 μg/ml): 0.50 µg/mL; Levofloxacin MIC Against P. aeruginosa PAM1001 in Presence of Efflux Pump Inhibitor (EPI), Minimum Inhibitory Concentration (Table 4, EPI Conc. […]): 4 µg/mL; Levofloxacin MIC Against P. aeruginosa PAM1001 in Presence of Efflux Pump Inhibitor (EPI), Minimum Inhibitory Concentration [4]: 0.50 µg/mL
3 | NCCCC(N)C(=O)N(CCCc1ccccc1)CCC(=O)Nc1ccc2ccccc2c1 (stereo not drawn) [Compound 21 (Table 3), Omithyl-β-(N-phenylpropyl)alanine 2-naphthylamide] | 4 µg/mL | 4 µg/mL | 1 µg/mL | 1 µg/mL | 0.25 µg/mL | 0.50 µg/mL | 4 µg/mL | 4 µg/mL | 2 µg/mL | 0.03 µg/mL | 4 µg/mL | 0.03 µg/mL | 4 µg/mL | 4 µg/mL | 0.03 µg/mL | 0.03 µg/mL | 0.06 µg/mL | 4 µg/mL | 4 µg/mL | 0.50 µg/mL | Levofloxacin MIC Against P. aeruginosa PAM1001 in Presence of Efflux Pump Inhibitor (EPI), Minimum Inhibitory Concentration (Table 3, EPI Conc. […]): 2 µg/mL; Levofloxacin MIC Against P. aeruginosa PAM1001 in Presence of Efflux Pump Inhibitor (EPI), Minimum Inhibitory Concentration (Table 4, EPI Conc. 40 μg/ml): 0.015 µg/mL; Levofloxacin MIC Against P. aeruginosa PAM1001 in Presence of Efflux Pump Inhibitor (EPI), Minimum Inhibitory Concentration (Table 4, EPI Conc. […]): 4 µg/mL; Levofloxacin MIC Against P. aeruginosa PAM1001 in Presence of Efflux Pump Inhibitor (EPI), Minimum Inhibitory Concentration [4]: 0.015 µg/mL
4 | C[C@H]1COc2c(N3CCN(C)CC3)c(F)cc3c(=O)c(C(=O)O)cn1c23 [levofloxacin, reference compound] | – | – | – | – | – | – | – | – | – | – | – | – | – | – | – | – | – | – | – | – | MIC (Pseudomonas aeruginosa, PAM1001, read-out: MIC of levofloxacin against P. aeruginosa PAM1001): 4 µg/mL
